{
  "source": "paper PMC6642015",
  "about": "(Cell chemical biology, 2019)",
  "experiment_in_all_cases": "isothermal titration calorimetry",
  "format_in_all_cases": "binding",
  "key": {"human CblA (MMAA) [1]": {"target": "T1, human CblA (MMAA) (Homo sapiens, UniProt Q8IVH4, G274S)", "T1 sequence (Q8IVH4 66-418 G274S limits assumed)": "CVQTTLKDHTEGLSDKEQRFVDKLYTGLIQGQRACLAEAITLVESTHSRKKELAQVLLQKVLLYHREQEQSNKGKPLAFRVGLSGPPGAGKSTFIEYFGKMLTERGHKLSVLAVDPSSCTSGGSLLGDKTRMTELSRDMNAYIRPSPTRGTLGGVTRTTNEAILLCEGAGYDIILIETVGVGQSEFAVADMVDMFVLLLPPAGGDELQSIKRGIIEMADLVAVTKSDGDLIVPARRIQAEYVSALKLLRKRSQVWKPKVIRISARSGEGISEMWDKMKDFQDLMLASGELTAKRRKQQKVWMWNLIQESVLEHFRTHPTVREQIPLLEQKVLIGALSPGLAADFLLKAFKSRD", "conditions": "pH 7.5, 150 mM KCl, 2 mM MgCl2, 20 °C; one-site model"}, "human CblA (MMAA) [2]": {"target": "T2, human CblA (MMAA) (Homo sapiens, UniProt Q8IVH4, G278D)", "T2 sequence (Q8IVH4 66-418 G278D limits assumed)": "T1 sequence (Q8IVH4 66-418 G274S limits assumed) with S209G, G213D", "conditions": "pH 7.5, 150 mM KCl, 2 mM MgCl2, 20 °C; one-site model"}, "human CblA (MMAA) [3]": {"target": "T3, human CblA (MMAA) (Homo sapiens, UniProt Q8IVH4, K276E)", "T3 sequence (Q8IVH4 66-418 K276E limits assumed)": "T1 sequence (Q8IVH4 66-418 G274S limits assumed) with S209G, K211E", "conditions": "pH 7.5, 150 mM KCl, 2 mM MgCl2, 20 °C; one-site model"}, "human CblA (MMAA) [4]": {"target": "T4, human CblA (MMAA) (Homo sapiens, UniProt Q8IVH4)", "T4 sequence (Q8IVH4 66-418 limits assumed)": "T1 sequence (Q8IVH4 66-418 G274S limits assumed) with S209G"}, "human CblA (MMAA) [5]": {"target": "T5, human CblA (MMAA) (Homo sapiens, UniProt Q8IVH4, K276A)", "T5 sequence (Q8IVH4 66-418 K276A limits assumed)": "T1 sequence (Q8IVH4 66-418 G274S limits assumed) with S209G, K211A", "conditions": "pH 7.5, 150 mM KCl, 2 mM MgCl2, 20 °C; one-site model"}, "human CblA (MMAA) [6]": {"target": "T6, human CblA (MMAA) (Homo sapiens, UniProt Q8IVH4, Q273A)", "T6 sequence (Q8IVH4 66-418 Q273A limits assumed)": "T1 sequence (Q8IVH4 66-418 G274S limits assumed) with Q208A, S209G", "conditions": "pH 7.5, 150 mM KCl, 2 mM MgCl2, 20 °C; one-site model"}},
  "note": "Numbering of substitutions follows the chain as printed.",
  "data": [
    {"smiles": "Nc1nc2c(ncn2[C@@H]2O[C@H](COP(=O)(O)OP(=O)(O)O)[C@@H](O)[C@H]2O)c(=O)[nH]1", "note": "[GDP]", "values": [
      {"measurement": "KD", "setting": "human CblA (MMAA) [1]", "result": "largely unaffected by switch III mutations (Table S1)"},
      {"measurement": "KD", "setting": "human CblA (MMAA) [2]", "result": "largely unaffected by switch III mutations (Table S1)"},
      {"measurement": "KD", "setting": "human CblA (MMAA) [3]", "result": "largely unaffected by switch III mutations (Table S1)"},
      {"measurement": "Kd", "setting": "human CblA (MMAA) [4]", "result": "1100 ± 300", "unit": "nM"},
      {"measurement": "KD", "setting": "human CblA (MMAA) [5]", "result": "largely unaffected by switch III mutations (Table S1)"},
      {"measurement": "KD", "setting": "human CblA (MMAA) [6]", "result": "largely unaffected by switch III mutations (Table S1)"}
    ]}
  ]
}
